The data set is described as follows: IV pharmacokinetics in male SD rats. It counts as in vivo, rat. The conditions noted are these: for clearance: male, Sprague-Dawley, rat, plasma, iv. The protocol:
Pharmacokinetic parameters of some examples were evaluated in male Sprague Dawley (SD) rats after intravenous (IV) and oral (PO) dosing. Male SD rats (5-6 weeks of age) were fasted for 12 hours before administration of the compound of interest. Animals were allowed access to food 2 h after dosing and water was given ad libitum. Except for the compound of Example 13, pharmacokinetic experiments comparing deuterium containing and non-deuterium containing compounds were performed at the same time using the same cohort of animals. The pharmacokinetic properties of the compound of Example 13 were evaluated separately and compared to previously generated data.
For IV dosing, a 0.5 mg/mL solution of the test compound was prepared in a vehicle consisting of 5% DMSO, 5% Cremophore, 90% normal saline. For a 1 mpk dose, 2 mL/kg of this dosing vehicle was administered to each rat by bolus injection into the tail vein. For lower doses, the dosing solution was diluted with the appropriate amount of vehicle. Example 3 was evaluated at 3 mpk by preparing a 1.5 mg/mL solution in the same vehicle and dosing 2 mL/kg. Blood samples from each animal was collected in di-sodium EDTA coated containers at 0.12, 0.25, 0.5, 1.0, 2.0, 4.0, 8.0 and 24.0 hours after dosing. Plasma was separated from the blood samples within 15 minutes following collection and stored at −20±5° C. before analysis.
A standard curve was generated from a stock solution of the test compound with known concentration in methanol. Working solutions having known concentrations ranging from 5-20,000 ng/mL were prepared from the stock solution by dilution with methanol:water (80:20 v/v). 5 uL of the working solutions were added to 45 uL of blank rat plasma to provide standard samples for analysis.
Plasma samples collected from rats after dosing were allowed to reach room temperature. A 50 uL aliquot of each plasma sample and the standard curve plasma samples were treated with 200 uL of acetonitrile containing an internal standard (100 ng/mL; warfarin/diclofenac) and mixed well. The samples were vortexed for 5 minutes followed by centrifugation for 5 minutes at 14000 rpm at 4° C. The supernatant (10 uL) was analyzed by LC-MS/MS (LC: Shimadzu SIL HTc, MS: MDS Sciex API-5500 & 4000 using 75%/25% acetonitrile/0.2% formic acid in Milli-Q water, flow rate: 1.0 mL/min, run time 3 minutes, Atlantis dC18(50×4.6 mm, 3 um; Waters®)) and the concentrations of the test compound in the plasma samples collected from rats at each time point were determined by comparison to the standard curve samples.
Pharmacokinetic parameters were calculated from the plasma concentrations at each time point using Phoenix WinNonlin (Version 7.0) by the non-compartmental analysis (NCA) method. Clearance values are reported as mL/min/kg. AUC values are reported as ng·h/mL.

The mark [1] stands for this setting: 1 mg/kg, IV 1 mpk, ± one standard deviation, read-out: IV clearance 1 mpk.
[2] abbreviates: 0.1 mg/kg, IV 0.1 mpk, ± one standard deviation, read-out: IV clearance 0.1 mpk.
The mark [3] stands for this setting: 3 mg/kg, IV 3 mpk, ± one standard deviation, read-out: IV clearance 3 mpk.
The mark [4] stands for this setting: IV 0.1 mpk, ± one standard deviation.

Like-named read-outs stand apart in the source and are kept apart here.

As to `[2H]C([2H])([2H])C(O)(c1nccc(-c2cc(-n3c(C)cc(OCc4ncc(F)cc4F)c(Cl)c3=O)c(C)cn2)n1)C([2H])([2H])[2H]` (single isomer, unassigned) [Example 13-D6, 3-Chloro-4-((3,5-difluoropyridin-2-yl)methoxy)-2′-(2-(2-hydroxypropan-2-yl-1,1,1,3,3,3-d6)pyrimidin-4-yl)-5′,6-dimethyl-2H-[1,4′-bipyridin]-2-one], where the note is “IV, versus non-deuterated comparator Example 1-H2”, the “effect of deuterium substitution on clearance” value is given as “did not result in a statistically significant reduction in clearance”. Further, the clearance (commonly the volume of plasma or blood freed of the substance per unit of time) under setting [1] amounted to 25 ± 7 mL/min/kg.

Turning to `[2H]C([2H])(Oc1cc(C)n(-c2cc(-c3ccnc(C(C)(C)O)n3)ncc2C)c(=O)c1Cl)c1cccc(OC)c1` (single isomer, unassigned) [Example 9-D2, 3-Chloro-2′-(2-(2-hydroxypropan-2-yl)pyrimidin-4-yl)-4-((3-methoxyphenyl)methoxy-d2)-5′,6-dimethyl-2H-[1,4′-bipyridin]-2-one], the clearance by setting is: under setting [2], 17 ± 3 mL/min/kg; under setting [1], 18 ± 2 mL/min/kg.

For the molecule `[2H]C([2H])(Oc1cc(C)n(-c2cc(-c3ccnc(C(C)(C)O)n3)ncc2C)c(=O)c1Cl)c1ccn(C)n1` (single isomer, unassigned) [Example 3-D2, 3-Chloro-2′-(2-(2-hydroxypropan-2-yl)pyrimidin-4-yl)-5′,6-dimethyl-4-((1-methyl-1H-pyrazol-3-yl)methoxy-d2)-2H-[1,4′-bipyridin]-2-one], the clearance reads like this: under setting [2], 12 ± 3 mL/min/kg; under setting [1], 13 ± 2 mL/min/kg; under setting [3], 9 ± 1 mL/min/kg.

With `[2H]C([2H])(Oc1cc(C)n(-c2cc(-c3ccnc(C(C)(C)O)n3)ncc2C)c(=O)c1Cl)c1ccc(F)cc1F` (single isomer, unassigned) [Example 11-H2, 3-chloro-4-((2,4-difluorophenyl)methoxy-d2)-2′-(2-(2-hydroxypropan-2-yl)pyrimidin-4-yl)-5′,6-dimethyl-2H-[1,4′-bipyridin]-2-one], the “dose dependence of clearance” value (IV 0.1 and 1 mpk) was “strong dose dependence”. Besides, the “IV clearance 0.1 mpk” value under setting [4] came to 40 ± 4 mL/min/kg. Further, the “IV clearance 1 mpk” value (IV 1 mpk, ± one standard deviation) is 22 ± 2 mL/min/kg.

`[2H]C([2H])(Oc1cc(C)n(-c2cc(-c3ccnc(C(C)(C)O)n3)ncc2C)c(=O)c1Cl)c1ccc(F)cc1F` (single isomer, unassigned) [Example 11-D2, 3-Chloro-4-((2,4-difluorophenyl)methoxy-d2)-2′-(2-(2-hydroxypropan-2-yl)pyrimidin-4-yl)-5′,6-dimethyl-2H-[1,4′-bipyridin]-2-one]: under setting [4], the “IV clearance 0.1 mpk” value is 16 ± 5, mL/min/kg. The clearance under setting [1] is 25 ± 3 mL/min/kg.

Turning to `[2H]C([2H])(Oc1cc(C)n(-c2cc(-c3ccnc(C(C)(C)O)n3)ncc2C)c(=O)c1Cl)c1cccc(C(F)(F)F)c1` (single isomer, unassigned) [Example 7-D2, 3-Chloro-2′-(2-(2-hydroxypropan-2-yl)pyrimidin-4-yl)-5′,6-dimethyl-4-((3-(trifluoromethyl)phenyl)methoxy-d2)-2H-[1,4′-bipyridin]-2-one], the clearance reads like this: under setting [2], 4.9 ± 0.5 mL/min/kg; under setting [1], 6 ± 1 mL/min/kg.

As to `COc1cccc(COc2cc(C)n(-c3cc(-c4ccnc(C(C)(C)O)n4)ncc3C)c(=O)c2Cl)c1` [Example 9-H2, 3-chloro-2′-(2-(2-hydroxypropan-2-yl)pyrimidin-4-yl)-4-((3-methoxyphenyl)methoxy)-5′,6-dimethyl-2H-[1,4′-bipyridin]-2-one], the clearance by setting is: under setting [2], 16 ± 3 mL/min/kg; under setting [1], 12 ± 2 mL/min/kg.

Consider `[2H]C([2H])(Oc1cc(C)n(-c2cc(-c3ccnc(C(C)(C)O)n3)ncc2C)c(=O)c1Cl)c1ccccc1` (single isomer, unassigned) [Example 5-D2, 3-Chloro-2′-(2-(2-hydroxypropan-2-yl)pyrimidin-4-yl)-5′,6-dimethyl-4-(phenylmethoxy-d2)-2H-[1,4′-bipyridin]-2-one], for which the clearance under setting [2] stood at 18 ± 1 mL/min/kg and the clearance under setting [1] stood at 13 ± 2 mL/min/kg.

For the molecule `Cc1cnc(-c2ccnc(C(C)(C)O)n2)cc1-n1c(C)cc(OCc2ccn(C)n2)c(Cl)c1=O` [Example 3-H2, 3-chloro-2′-(2-(2-hydroxypropan-2-yl)pyrimidin-4-yl)-5′,6-dimethyl-4-((1-methyl-1H-pyrazol-3-yl)methoxy)-2H-[1,4′-bipyridin]-2-one], the clearance is, setting by setting: under setting [2], 13 ± 3 mL/min/kg; under setting [1], 9 ± 2 mL/min/kg; under setting [3], 8 ± 1 mL/min/kg.

Turning to `Cc1cnc(-c2ccnc(C(C)(C)O)n2)cc1-n1c(C)cc(OCc2ccccc2)c(Cl)c1=O` [Example 5-H2, 3-chloro-2′-(2-(2-hydroxypropan-2-yl)pyrimidin-4-yl)-5′,6-dimethyl-4-(phenylmethoxy)-2H-[1,4′-bipyridin]-2-one], the clearance is, setting by setting: under setting [2], 16 ± 2 mL/min/kg; under setting [1], 15 ± 2 mL/min/kg.

Regarding `Cc1cnc(-c2ccnc(C(C)(C)O)n2)cc1-n1c(C)cc(OCc2cccc(C(F)(F)F)c2)c(Cl)c1=O` [Example 7-H2, 3-chloro-2′-(2-(2-hydroxypropan-2-yl)pyrimidin-4-yl)-5′,6-dimethyl-4-((3-(trifluoromethyl)phenyl)methoxy)-2H-[1,4′-bipyridin]-2-one], the clearance is, setting by setting: under setting [2], 7 ± 4 mL/min/kg; under setting [1], 3.1 ± 0.3 mL/min/kg.

Values taken from patent US12403141B2, “Deuterated MK2 pathway inhibitors and methods of using the same” (ACLARIS THERAPEUTICS, INC., priority 2019, dated 2025).
